Converted amounts (≈) assume the structure as drawn.
Assays:
Type in all cases: functional
Aspergillus clavatus = assay: Antifungal activity against Aspergillus clavatus MTCC 1323 after 72 hr; details: MTCC 1323, 72 h
Aspergillus niger = assay: Antifungal activity against Aspergillus niger MTCC 282 after 72 hr; details: MTCC 282, 72 h
Candida albicans = assay: Antifungal activity against Candida albicans MTCC 227 after 72 hr; details: MTCC 227, 72 h
Streptococcus pyogenes = assay: Antibacterial activity against Streptococcus pyogenes MTCC 442 after 24 to 48 hr by serial broth dilution method
Staphylococcus aureus = assay: Antibacterial activity against Staphylococcus aureus MTCC 96 after 24 to 48 hr by serial broth dilution method
Pseudomonas aeruginosa = assay: Antibacterial activity against Pseudomonas aeruginosa MTCC 1688 after 24 to 48 hr by serial broth dilution method
Escherichia coli = assay: Antibacterial activity against Escherichia coli MTCC 443 after 24 to 48 hr by serial broth dilution method

SMILES | MIC99 (Aspergillus clavatus) [mg/L] | MIC99 (Aspergillus niger) [mg/L] | MIC99 (Candida albicans) [mg/L] | MIC99 (Streptococcus pyogenes) [mg/L] | MIC99 (Staphylococcus aureus) [mg/L] | MIC99 (Pseudomonas aeruginosa) [mg/L] | MIC99 (Escherichia coli) [mg/L]
O=C(Nn1c(S)nnc1-c1cccc2ccccc12)c1ccccc1 | 1000 (≈ 2890 µM) | 1000 (≈ 2890 µM) | 1000 (≈ 2890 µM) | 1000 (≈ 2890 µM) | 500 (≈ 1440 µM) | 50 (≈ 144 µM) | 500 (≈ 1440 µM)
Cc1ccccc1C(=O)Nn1c(S)nnc1-c1cccc2ccccc12 | 100 (≈ 277 µM) | 500 (≈ 1390 µM) | 200 (≈ 555 µM) | 100 (≈ 277 µM) | 500 (≈ 1390 µM) | 100 (≈ 277 µM) | 100 (≈ 277 µM)
COc1ccccc1C(=O)Nn1c(S)nnc1-c1cccc2ccccc12 | 500 (≈ 1330 µM) | 200 (≈ 531 µM) | 200 (≈ 531 µM) | 500 (≈ 1330 µM) | 250 (≈ 664 µM) | 250 (≈ 664 µM) | 100 (≈ 266 µM)
O=C(Cc1ccccc1)Nn1c(S)nnc1-c1cccc2ccccc12 | 500 (≈ 1390 µM) | 500 (≈ 1390 µM) | 1000 (≈ 2770 µM) | 200 (≈ 555 µM) | 250 (≈ 694 µM) | 500 (≈ 1390 µM) | 500 (≈ 1390 µM)
O=C(Nn1c(S)nnc1-c1cccc2ccccc12)c1ccccc1O | 200 (≈ 552 µM) | 500 (≈ 1380 µM) | 500 (≈ 1380 µM) | 500 (≈ 1380 µM) | 500 (≈ 1380 µM) | 1000 (≈ 2760 µM) | 1000 (≈ 2760 µM)
O=C(Nn1c(S)nnc1-c1cccc2ccccc12)c1ccccc1Cl | 250 (≈ 656 µM) | 100 (≈ 263 µM) | 50 (≈ 131 µM) | 500 (≈ 1310 µM) | 500 (≈ 1310 µM) | 100 (≈ 263 µM) | 50 (≈ 131 µM)
O=C(Nn1c(S)nnc1-c1cccc2ccccc12)c1cccc(Cl)c1 | 50 (≈ 131 µM) | 50 (≈ 131 µM) | 50 (≈ 131 µM) | 100 (≈ 263 µM) | 250 (≈ 656 µM) | 250 (≈ 656 µM) | 25 (≈ 65.6 µM)
O=C(Nn1c(S)nnc1-c1cccc2ccccc12)c1cccc([N+](=O)[O-])c1 | 100 (≈ 255 µM) | 200 (≈ 511 µM) | 200 (≈ 511 µM) | 500 (≈ 1280 µM) | 100 (≈ 255 µM) | 100 (≈ 255 µM) | 100 (≈ 255 µM)
O=C(Nn1c(S)nnc1-c1cccc2ccccc12)c1ccc(O)cc1 | 500 (≈ 1380 µM) | 500 (≈ 1380 µM) | 500 (≈ 1380 µM) | 500 (≈ 1380 µM) | 100 (≈ 276 µM) | 100 (≈ 276 µM) | 250 (≈ 690 µM)
O=C(Nn1c(S)nnc1-c1cccc2ccccc12)c1ccc([N+](=O)[O-])cc1 | 50 (≈ 128 µM) | 50 (≈ 128 µM) | 50 (≈ 128 µM) | 500 (≈ 1280 µM) | 250 (≈ 639 µM) | 25 (≈ 63.9 µM) | 50 (≈ 128 µM)
O=C(Nn1c(S)nnc1-c1cccc2ccccc12)c1ccc2cccc([N+](=O)[O-])c2c1 | 50 (≈ 113 µM) | 100 (≈ 227 µM) | 100 (≈ 227 µM) | 250 (≈ 566 µM) | 250 (≈ 566 µM) | 100 (≈ 227 µM) | 200 (≈ 453 µM)
O=C(COc1ccc2ccccc2c1)Nn1c(S)nnc1-c1cccc2ccccc12 | 500 (≈ 1170 µM) | 500 (≈ 1170 µM) | 500 (≈ 1170 µM) | 500 (≈ 1170 µM) | 250 (≈ 586 µM) | 250 (≈ 586 µM) | 100 (≈ 234 µM)
CC1(C)S[C@@H]2[C@H](NC(=O)[C@H](N)c3ccccc3)C(=O)N2[C@H]1C(=O)O [AMPICILLIN] | – | – | – | 100 (≈ 286 µM) | 250 (≈ 715 µM) | 100 (≈ 286 µM) | 100 (≈ 286 µM)
COC1=CC(=O)C[C@@H](C)[C@]12Oc1c(Cl)c(OC)cc(OC)c1C2=O [GRISEOFULVIN] | 100 (≈ 283 µM) | 100 (≈ 283 µM) | 500 (≈ 1420 µM) | – | – | – | –

Source: ChEMBL document CHEMBL3045867, “Synthesis, characterization, and antimicrobial evaluation of novel naphthalene-based 1,2,4-triazoles” (2012)
